Experimental data taken from patent US8314117B2, “CGRP receptor antagonists” (Bristol-Myers Squibb Company, priority 2009, dated 2012).

Target: T1, Human CGRP Receptor (Homo sapiens, UniProt O60894+Q16602)
T1 construct: Crude membranes were prepared from SK-N-MC cells expressing CGRP receptors; endogenous in cells; host or cells: SK-N-MC cells (crude membranes)
Test: Radioligand binding assay, [125I]-CGRP displacement from SK-N-MC cell membranes
Conditions: SK-N-MC membranes (7 μg/well); [125I]-CGRP final 18 pM; room temperature 2 h; at least two separate experiments
Method: Tissue Culture. SK-N-MC cells were grown at 37° C. in 5% CO2 as a monolayer in medium consisting of MEM with Earle's salts and L-glutamine (Invitrogen) supplemented with 10% fetal bovine serum (Invitrogen). Membrane Preparation. Crude membranes were prepared from SK-N-MC cells expressing CGRP receptors. The cells were rinsed twice with phosphate-buffered saline (155 mM NaCl, 3.3 mM Na2HPO4, 1.1 mM […]4, pH 7.4), and incubated for 5-10 min. at 4° C. in hypotonic lysis buffer consisting of 10 mM Tris (pH 7.4) and 5 mM EDTA. […] Homogenates were centrifuged at 32,000×g for 30 min. The pellets were resuspended in cold hypotonic lysis buffer with 0.1% mammalian protease inhibitor cocktail (Sigma) and assayed for protein concentration. The SK-N-MC homogenate was aliquoted and stored at -80° C. Radioligand Binding Assay. The compounds of invention were solubilized and carried through serial dilutions using 100% DMSO. […] [^125I]-CGRP (GE Healthcare or Perkin-Elmer) was diluted to […] in assay buffer and a volume of 50 μl was added to each well. SK-N-MC membranes were thawed, diluted in assay buffer with fresh 0.1% mammalian protease inhibitor cocktail (Sigma), and re-homogenized. SK-N-MC homogenate (7 μg/well) was added in a volume of 100 μl. The assay plates were then incubated at room temperature for 2 h. […] Protein bound radioactivity was determined using a gamma or scintillation counter. […] Final assay concentration of [^125I]-CGRP was 18 pM. […] All compounds of invention were evaluated in at least two separate experiments.

T1 sequence (Q16602 23-461): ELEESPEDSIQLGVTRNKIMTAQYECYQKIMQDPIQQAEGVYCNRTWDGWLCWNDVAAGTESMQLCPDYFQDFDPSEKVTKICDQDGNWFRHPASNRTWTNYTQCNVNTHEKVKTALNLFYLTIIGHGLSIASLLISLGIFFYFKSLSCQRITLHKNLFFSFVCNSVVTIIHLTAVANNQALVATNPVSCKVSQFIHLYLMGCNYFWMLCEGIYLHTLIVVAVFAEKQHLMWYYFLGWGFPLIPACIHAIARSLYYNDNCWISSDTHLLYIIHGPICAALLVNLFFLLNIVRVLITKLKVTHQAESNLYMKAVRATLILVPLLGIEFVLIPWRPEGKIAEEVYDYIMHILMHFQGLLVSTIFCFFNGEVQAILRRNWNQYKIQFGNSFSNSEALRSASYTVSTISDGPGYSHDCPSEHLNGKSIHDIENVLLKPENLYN
T1 sequence (O60894 27-148): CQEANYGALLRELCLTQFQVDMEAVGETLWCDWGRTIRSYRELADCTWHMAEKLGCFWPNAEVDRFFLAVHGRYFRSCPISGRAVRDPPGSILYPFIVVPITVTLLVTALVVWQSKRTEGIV

IC50 [nM] | Structure (SMILES)
0.89 | O=C(O[C@@H]1CC[C@@H](c2cc(F)cc(F)c2)[C@H](O)c2cccnc21)N1CCC(n2c(=O)[nH]c3ncccc32)CC1 [Example 11, (5S,6S,9R)-6-(3,5-difluorophenyl)-5-hydroxy-6,7,8,9-tetrahydro-5H-cyclohepta[b]pyridin-9-yl 4-(2-oxo-2,3-dihydro-1H-imidazo[4,5-b]pyridin-1-yl)piperidine-1-carboxylate]
28 | O=C(O[C@@H]1CC[C@@H](c2cccc(F)c2F)/C(=N/O)c2cccnc21)N1CCC(n2c(=O)[nH]c3ncccc32)CC1 [Example 15, (6S,9R,Z)-6-(2,3-difluorophenyl)-5-(hydroxyimino)-6,7,8,9-tetrahydro-5H-cyclohepta[b]pyridin-9-yl 4-(2-oxo-2,3-dihydro-1H-imidazo[4,5-b]pyridin-1-yl)piperidine-1-carboxylate]
8.6 | O=C(O[C@@H]1CC[C@H](c2cccc(F)c2F)[C@H](O)c2cccnc21)N1CCC(n2c(=O)[nH]c3ncccc32)CC1 [Example 6, (5S,6R,9R)-6-(2,3-difluorophenyl)-5-hydroxy-6,7,8,9-tetrahydro-5H-cyclohepta[b]pyridin-9-yl 4-(2-oxo-2,3-dihydro-1H-imidazo[4,5-b]pyridin-1-yl)piperidine-1-carboxylate]
2 | CN(C)[C@@H]1c2cccnc2[C@H](OC(=O)N2CCC(n3c(=O)[nH]c4ncccc43)CC2)CC[C@H]1c1cccc(F)c1F [Example 14, (5S,6S,9R)-6-(2,3-difluorophenyl)-5-(dimethylamino)-6,7,8,9-tetrahydro-5H-cyclohepta[b]pyridin-9-yl 4-(2-oxo-2,3-dihydro-1H-imidazo[4,5-b]pyridin-1-yl)piperidine-1-carboxylate]
410 | O=C(O[C@@H]1CC[C@@](O)(c2cccc(F)c2F)C(=O)c2cccnc21)N1CCC(n2c(=O)[nH]c3ncccc32)CC1 (single isomer, unassigned) [Example 1]
28 | O=C1c2cccnc2[C@H](OC(=O)N2CCC(n3c(=O)[nH]c4ncccc43)CC2)CCC1c1cccc(F)c1F (mixture of isomers) [Example 2, (9R)-6-(2,3-difluorophenyl)-5-oxo-6,7,8,9-tetrahydro-5H-cyclohepta[b]pyridin-9-yl 4-(2-oxo-2,3-dihydro-1H-imidazo[4,5-b]pyridin-1-yl)piperidine-1-carboxylate]
0.2 | N[C@@H]1c2cccnc2[C@H](OC(=O)N2CCC(n3c(=O)[nH]c4ncccc43)CC2)CC[C@H]1c1cc(F)cc(F)c1 [Example 10, (5S,6S,9R)-5-amino-6-(3,5-difluorophenyl)-6,7,8,9-tetrahydro-5H-cyclohepta[b]pyridin-9-yl 4-(2-oxo-2,3-dihydro-1H-imidazo[4,5-b]pyridin-1-yl)piperidine-1-carboxylate]
40 | O=C(O[C@@H]1CC[C@@H](c2cccc(F)c2F)/C(=N\O)c2cccnc21)N1CCC(n2c(=O)[nH]c3ncccc32)CC1 [Example 16, (6S,9R,E)-6-(2,3-difluorophenyl)-5-(hydroxyimino)-6,7,8,9-tetrahydro-5H-cyclohepta[b]pyridin-9-yl 4-(2-oxo-2,3-dihydro-1H-imidazo[4,5-b]pyridin-1-yl)piperidine-1-carboxylate]
1.2 | N[C@@H]1c2cccnc2[C@H](OC(=O)Nc2ccc3c(c2)CC2(C3)C(=O)Nc3ncccc32)CC[C@H]1c1cccc(F)c1F (stereo partly drawn) [Example 17, (5S,6S,9R)-5-amino-6-(2,3-difluorophenyl)-6,7,8,9-tetrahydro-5H-cyclohepta[b]pyridin-9-yl 2′-oxo-1,1′,2′,3-tetrahydrospiro[indene-2,3′-pyrrolo[2,3-b]pyridine]-5-ylcarbamate]
12 | O=C(O[C@H]1c2ncccc2C[C@H](c2cccc(F)c2F)C[C@H]1O)N1CCC(n2c(=O)[nH]c3ncccc32)CC1 [Example 12, (6S,8R,9S)-6-(2,3-difluorophenyl)-8-hydroxy-6,7,8,9-tetrahydro-5H-cyclohepta[b]pyridin-9-yl 4-(2-oxo-2,3-dihydro-1H-imidazo[4,5-b]pyridin-1-yl)piperidine-1-carboxylate]
1.3 | O=C(O[C@@H]1CCC(c2cccc(F)c2F)C(O)c2cccnc21)N1CCC(n2c(=O)[nH]c3ncccc32)CC1 (single isomer, unassigned) [Example 5]
> 1000 | N[C@@H]1c2cccnc2[C@@H](CC(=O)N2CCC(n3c(=O)[nH]c4ncccc43)CC2)CC[C@H]1c1cccc(F)c1F [Example 21, 1-(1-(2-((5S,6S,9R)-5-amino-6-(2,3-difluorophenyl)-6,7,8,9-tetrahydro-5H-cyclohepta[b]pyridin-9-yl)acetyl)piperidin-4-yl)-1H-imidazo[4,5-b]pyridin-2(3H)-one]
500 | O=C(O[C@@H]1CC[C@@](O)(c2cccc(F)c2F)[C@@H](O)c2cccnc21)N1CCC(n2c(=O)[nH]c3ncccc32)CC1 (single isomer, unassigned) [Example 3]
0.8 | N[C@@H]1c2cccnc2[C@H](NC(=O)N2CCC(n3c(=O)[nH]c4ncccc43)CC2)CC[C@H]1c1cccc(F)c1F [Example 18]
0.13 | [N-]=[N+]=N[C@@H]1c2cccnc2[C@H](OC(=O)N2CCC(n3c(=O)[nH]c4ncccc43)CC2)CC[C@H]1c1cccc(F)c1F [Example 7, (5S,6S,9R)-5-azido-6-(2,3-difluorophenyl)-6,7,8,9-tetrahydro-5H-cyclohepta[b]pyridin-9-yl 4-(2-oxo-2,3-dihydro-1H-imidazo[4,5-b]pyridin-1-yl)piperidine-1-carboxylate]
0.19 | CN[C@@H]1c2cccnc2[C@H](OC(=O)N2CCC(n3c(=O)[nH]c4ncccc43)CC2)CC[C@H]1c1cccc(F)c1F [Example 13, (5S,6S,9R)-6-(2,3-difluorophenyl)-5-(methylamino)-6,7,8,9-tetrahydro-5H-cyclohepta[b]pyridin-9-yl 4-(2-oxo-2,3-dihydro-1H-imidazo[4,5-b]pyridin-1-yl)piperidine-1-carboxylate]
0.16 | O=C(O[C@@H]1CC[C@@H](c2cccc(F)c2F)[C@H](O)c2cccnc21)N1CCC(n2c(=O)[nH]c3ncccc32)CC1 [Example 4, (5S,6S,9R)-6-(2,3-difluorophenyl)-5-hydroxy-6,7,8,9-tetrahydro-5H-cyclohepta[b]pyridin-9-yl 4-(2-oxo-2,3-dihydro-1H-imidazo[4,5-b]pyridin-1-yl)piperidine-1-carboxylate]

Structure (SMILES) | IC50 [nM]
N[C@@H]1c2cccnc2[C@H](OC(=O)N2CCC(n3c(=O)[nH]c4ncccc43)CC2)CC[C@H]1c1cccc(F)c1F [Example 8, (5S,6S,9R)-5-amino-6-(2,3-difluorophenyl)-6,7,8,9-tetrahydro-5H-cyclohepta[b]pyridin-9-yl 4-(2-oxo-2,3-dihydro-1H-imidazo[4,5-b]pyridin-1-yl)piperidine-1-carboxylate] | 0.04
